103 molecules from ChEMBL document CHEMBL3507680, “University of Dundee, Gates Library screen for HepG2 cell viability” can be followed below.

The nature of this series: Human HepG2 cell viability assay in 384 well format. More on the design: dose 125 nL, time 70.5 hour; concentration not given beside the values. The format is toxicity, cell-based. The conditions noted are these: HepG2 cells, read-out: Inhibition.

For `CC1CCCCN1CCNC(=O)c1ccn(-c2cccc(F)c2)n1` (stereo not drawn), the cytotoxicity at 70.5 h was -0.176%. In the case of `NS(=O)(=O)c1cccc(CNc2nccc(C(F)(F)F)n2)c1` it was -5.9%. In the case of `CC(C)COCC(NC(=O)c1cnccn1)c1ccco1` (stereo not drawn) it was -10.5%; in that of `O=C(NCCc1ccccn1)C1CC(=O)N(CC(F)(F)F)C1` (stereo not drawn), -2.42%.

On to `CCCOc1cc(C)ccc1NC(=O)N(C)Cc1cnn(C)c1`, for which the cytotoxicity at 70.5 h is -4.07%. As for `Cc1ccc(F)c(NC(=O)NCCCn2nc3ccccn3c2=O)c1`, the cytotoxicity at 70.5 h is -3.3%. In the case of `CCc1nccn1C1CCCN(C(=O)c2ccoc2C)C1` (stereo not drawn) it was 1.06%; in that of `Cc1ccc(CC(=O)N2CCCC2Cn2nc(C)cc2C)cn1` (stereo not drawn), -11.5%. Then `Cc1ccc(CC(=O)N2CCN(c3nccs3)CC2)s1`, with 14.7%; and `Cc1cc(C(=O)NC(COCC(C)C)c2ccco2)no1` (stereo not drawn), with -1.3%. Then `c1ncn(CC2CCCN(Cc3csc(-c4ccsc4)n3)C2)n1` (stereo not drawn), with 2.18%; and `CC(Cn1cccn1)NCc1csc(COc2ccc(F)cc2)n1` (stereo not drawn), with -1.54%; and `CCCc1nc(CNC(C)Cn2cccn2)cs1` (stereo not drawn), with 3.08%. With `c1ccc2oc(CCCN3CCCC3c3noc(C4CC4)n3)nc2c1` (stereo not drawn), the cytotoxicity at 70.5 h stood at 17.9%. Take `CC(C)C1CCCN1CCCc1nc(-c2cccs2)no1` (stereo not drawn): the cytotoxicity at 70.5 h is 2.81%. In the case of `CC(O)CN1CCC(CNCc2cccc(Cl)c2)CC1` (stereo not drawn) it was 12.3%. On to `COc1ccc(C(=O)N2CCCCC2c2nccs2)c(OC)c1` (stereo not drawn), for which the cytotoxicity at 70.5 h is -6.39%. On to `Cc1noc(C)c1CN1CCCC(c2noc(C3CC3)n2)C1` (stereo not drawn), for which the cytotoxicity at 70.5 h was -7.9%. Take `CCCc1nc(CN2CCCC(c3noc(C4CC4)n3)C2)no1` (stereo not drawn): the cytotoxicity at 70.5 h was -4.77%. As for `COc1ccc(CCCNCc2c(C)nn(C)c2N(C)C)cc1OC`, the cytotoxicity at 70.5 h was 4.5%. Then `Cc1ccc(S(=O)(=O)NC(=O)CCC2CCCO2)cc1` (stereo not drawn), with 0.693%; and `O=C(CN1CCCC1c1cccs1)N1CCc2sccc2C1` (stereo not drawn), with -0.311%; and `COc1cccc(S(=O)(=O)NC(=O)CCC2CCCO2)c1` (stereo not drawn), with 1.07%. In the case of `COc1cc(CNCc2c(C)nn(C)c2N(C)C)ccc1OCCO` it was 5.42%; in that of `O=C(NCCOC1CCCC1)c1ccc(-c2ccco2)[nH]c1=O`, -2.19%.

Consider `O=C1COc2c(cccc2C(=O)N2CCCC(n3cccn3)C2)N1` (stereo not drawn), for which the cytotoxicity at 70.5 h stood at 23.6%. In the case of `CC(O)CN1CCC(CNCc2ccc(C(N)=O)cc2)CC1` (stereo not drawn) it was -0.474%. As to `Cc1ccc(CC(=O)N2CCN(C3CCOC3=O)CC2)cc1` (stereo not drawn), the cytotoxicity at 70.5 h is -1.49%. `c1csc(-c2noc(CN3CCCC3Cn3cccn3)n2)c1` (stereo not drawn): the cytotoxicity at 70.5 h was -2.35%. As to `Cn1nc2c(cc1=O)CN(Cc1coc(-c3ccc(F)cc3)n1)CC2`, the cytotoxicity at 70.5 h came out at 14.8%. In the case of `Cn1nc2c(cc1=O)CN(Cc1coc(-c3cccc(F)c3)n1)CC2` it was -2.83%; in that of `COc1ccc(COCC(=O)N2CCCC(n3cncn3)C2)cc1` (stereo not drawn), 19.2%; in that of `c1ccc(OCCN2CCCCC2Cn2cncn2)cc1` (stereo not drawn), 23.7%. For `O=C(NCc1nncn1-c1ccccc1)C1CCCC1`, the cytotoxicity at 70.5 h was -4.48%. As to `O=C(NCc1nncn1-c1ccccc1)C1CCCCC1`, the cytotoxicity at 70.5 h is -0.117%.

Regarding `COc1ccc(CNC(=O)Nc2cccnc2N2CCCC2)cc1`, the cytotoxicity at 70.5 h came out at 20.6%. Then `CC(NC(=O)CCCOc1ccc(F)cc1)c1nnc2n1CCC2` (stereo not drawn), with -1.76%; and `NC(=O)N1CCC(C(=O)NCc2nncn2-c2ccccc2)CC1`, with 1.01%; and `Cc1cnn(CC2CN(Cc3nc(-c4ccco4)no3)CCO2)c1` (stereo not drawn), with -0.209%. Then `O=C(NCC(=O)N1CCCC(n2cncn2)C1)OCc1ccccc1` (stereo not drawn), with -0.265%; and `Cc1ccc(CCC(=O)N2CCCC(c3cc(C(N)=O)[nH]n3)C2)cc1` (stereo not drawn), with 0.115%. `COc1ccccc1C1(C(=O)N2CCCC(c3cc(C)[nH]n3)C2)CC1` (stereo not drawn): the cytotoxicity at 70.5 h is -0.122%. Then `CCOCC(O)CN1CCN(C(=O)C2CCCC2)CC1` (stereo not drawn), with -0.535%.

Turning to `Cc1ccc(N2CCCC(NCc3cccs3)C2)nn1` (stereo not drawn), the cytotoxicity at 70.5 h was -1.01%. In the case of `Cc1ccc(N2CCCC(NCc3ccc4c(c3)OCCO4)C2)nn1` (stereo not drawn) it was 1.38%; in that of `c1cnn(CC2CN(Cc3nc(-c4ccoc4)no3)CCO2)c1` (stereo not drawn), 24.3%; in that of `Cc1ccc(N2CCCC(NCC3=Cc4ccccc4OC3)C2)nn1` (stereo not drawn), -5.84%. Then `Cc1cnn(CC2CN(Cc3nc(-c4ccccn4)no3)CCO2)c1` (stereo not drawn), with 2.23%; and `Cc1nn(C)c(Cl)c1C1CCCN1CC(=O)Nc1cccnc1` (stereo not drawn), with -6.29%; and `COc1cccc(COCC(=O)N2CCCC(n3cncn3)C2)c1` (stereo not drawn), with -1.04%.

For the molecule `CCOCC(O)CN1CCN(C(=O)C2CCCCC2)CC1` (stereo not drawn), the cytotoxicity at 70.5 h was -0.878%. As for `Cc1nc(C)n(C2CCCN(C(=O)c3ncoc3C(C)C)C2)n1` (stereo not drawn), the cytotoxicity at 70.5 h is -11.1%. As for `CC(C)Oc1ncccc1CNC(=O)c1cnccn1`, the cytotoxicity at 70.5 h is -5.94%. Then `CS(=O)(=O)NCC1CCCN(C(=O)c2ccco2)C1` (stereo not drawn), with -6.79%; and `Cc1ccc(C(=O)N2CCCS2(=O)=O)cc1Cl`, with -19.9%.

As to `CCOCCN1CCCC(c2cc(C(N)=O)[nH]n2)C1` (stereo not drawn), the cytotoxicity at 70.5 h was -13.1%.

Take `COc1ccccc1OCCN1CCCC(c2cc(C(N)=O)[nH]n2)C1` (stereo not drawn): the cytotoxicity at 70.5 h is -9.71%. With `Cc1cc(C2CCCN2Cc2cc(=O)n(C)c(=O)n2C)on1` (stereo not drawn), the cytotoxicity at 70.5 h is -12.3%. In the case of `Cn1nc2c(cc1=O)CN(Cc1nc(-c3cccs3)no1)CC2`, the cytotoxicity at 70.5 h is -14.3%. In the case of `Cc1cc(CN(C)C(=O)c2ccc(C(F)(F)F)nc2)no1` it was -19.6%; in that of `Cn1c(C2CC2)nc2c1CCN(CCS(=O)(=O)c1ccccc1)C2`, -14.4%; in that of `COCCc1noc(CN2CCCC2Cn2cc(C)cn2)n1` (stereo not drawn), 18.1%. In the case of `CCN1CCC(NC(=O)CN2CCCCC2Cn2cc(C)cn2)CC1` (stereo not drawn) it was 53.1%; in that of `CCOCCN1CCn2c(C)nnc2C1`, 16.1%.

With `CCN(Cc1nc2c(cnn2C)c(=O)[nH]1)c1cccc(F)c1`, the cytotoxicity at 70.5 h is -5.89%.

Turning to `Cc1cc(CN2CCN(c3nn4cc(C)nc4s3)CC2)on1`, the cytotoxicity at 70.5 h is -7.1%. Then `COc1ccc(COCC(O)CNC(=O)c2cc(C)cc(C)c2)cc1` (stereo not drawn), with -11.8%; and `O=C(Nc1ccccc1F)N1CCN(Cc2noc(C3CC3)n2)CC1`, with -10.2%; and `Cc1nc(C)n(CC2CCCN(c3ncnc4[nH]ccc34)C2)n1` (stereo not drawn), with 3.27%. In the case of `Cc1cnn(CC2CCCCN2C(=O)c2cc(C(N)=O)cs2)c1` (stereo not drawn) it was 28.2%; in that of `Cc1nn(C)c(C)c1C1CCCN1C(=O)c1cc[nH]n1` (stereo not drawn), -3.7%.

On to `c1cnnc(N2CCCC2CNc2ncnc3c2CCC3)c1` (stereo not drawn), for which the cytotoxicity at 70.5 h was -2.98%. Regarding `COc1ccccc1C(=O)NC(C)CC(=O)O` (stereo not drawn), the cytotoxicity at 70.5 h is -7.64%. In the case of `Cc1cnn(CCNCc2cccnc2)c1` it was -1.13%; in that of `CC(C)n1ccnc1CN1CCCN(C(=O)COC2CCCC2)CC1`, -3.66%. Then `CC(C)(C)n1ncc2c1CCCC2NCc1cccc2c1OCO2` (stereo not drawn), with -1.84%. For `Cc1nc(C2CCCN(C(=O)c3cccc(S(C)(=O)=O)c3)C2)no1` (stereo not drawn), the cytotoxicity at 70.5 h was -9.98%. With `CCn1ncc2c1CCCC2NCC1=Cc2ccccc2OC1` (stereo not drawn), the cytotoxicity at 70.5 h was -12.8%. As for `Cc1cnn(CC(C)NCc2ccc(-n3cccn3)cc2)c1` (stereo not drawn), the cytotoxicity at 70.5 h was found to be 30.2%. In the case of `COc1ncccc1C(=O)N1CCN(C(=O)Cc2ccccn2)CC1` it was 6.6%; in that of `Cc1ccc(CC(=O)NCCCNS(C)(=O)=O)cc1`, 1.07%. In the case of `Cc1nc(CN2CCN(C(=O)c3ccn(C)c(=O)c3)CC2)cs1` it was 7.44%; in that of `CC(C)(C)NC(=O)C1CSCN1S(=O)(=O)c1ccc(F)cc1` (stereo not drawn), -1.49%. Turning to `Cn1ccc(C(=O)N2CCN(CCc3ccccc3)CC2)cc1=O`, the cytotoxicity at 70.5 h was -1.11%. Take `O=C(c1ccc(O)c(Cl)c1)N1CCC(c2n[nH]c(C3CC3)n2)CC1`: the cytotoxicity at 70.5 h was determined as 36.5%. For `CC(NC(=O)NCCCNS(C)(=O)=O)c1ccncc1` (stereo not drawn), the cytotoxicity at 70.5 h is 1.41%. Then `CCn1cc(NC(=O)C2CCN(Cc3noc(C(C)C)n3)CC2)cn1`, with 0.996%; and `COCCCNC(=O)NCc1ccc(C)cc1`, with 8.59%. Consider `CCc1nc(CC(=O)N2CCN(c3cnccn3)CC2)cs1`, for which the cytotoxicity at 70.5 h was -0.0277%. In the case of `CCCc1nc(CN2CCN(Cc3noc(CCC)n3)CC2)no1` it was 11.4%; in that of `O=C(CCNc1ncccn1)N1CCCC(n2ccnc2)C1` (stereo not drawn), -2.71%; in that of `CN(C)S(=O)(=O)c1ccc(OCCNCCn2cccn2)cc1`, 33.7%. In the case of `Cc1cc(C)n(C2CN(CC(=O)NC3CCOCC3)C2)n1` it was -0.827%; in that of `CCCc1n[nH]c(C2CN(CCCS(C)(=O)=O)CCO2)n1` (stereo not drawn), -4.54%. Regarding `COc1c(CNCc2ccnc(N3CCCC3)c2)c(C)nn1C`, the cytotoxicity at 70.5 h is -0.752%. In the case of `O=C(CCc1cscn1)N1CCCC(n2ccnc2)C1` (stereo not drawn) it was 2.29%. For `Cc1cccc(-c2nc(CN(Cc3cccs3)CC3CCCO3)no2)c1` (stereo not drawn), the cytotoxicity at 70.5 h was -1.72%.

For `Cc1cnn(CC(C)NCc2csc(-c3ccsc3)n2)c1` (stereo not drawn), the cytotoxicity at 70.5 h was -0.817%.

Consider `COc1cc(C(=O)N2CCC(c3n[nH]c(C4CC4)n3)CC2)ccc1C`, for which the cytotoxicity at 70.5 h is 36.5%. `CC1CCN(S(=O)(=O)NCc2ccccc2Cn2cncn2)CC1`: the cytotoxicity at 70.5 h was -2.92%. Then `CC(C(=O)N1CCN(c2ccccc2Cl)CC1)n1cncn1` (stereo not drawn), with 10.3%; and `COc1cc(/C=C/c2ncc(C(=O)O)s2)cc(Cl)c1O`, with 7.03%. In the case of `Cn1ncc2c1CCCC2NCc1cccc(F)c1` (stereo not drawn) it was -14.3%.
